Test results as given in the supplement of paper PMC10307832.

Tests used:
Test in all cases: relative viability (nuclei count vs DMSO), 5 days (fraction); higher = more cells survive
RU-SKI 43 + Pictilisib = compound: CC[C@@H](C)CNCC(=O)N1CCC2=C([C@@H]1COC3=CC=CC(=C3)C)C=CS2 [RU-SKI 43] + CS(=O)(=O)N1CCN(Cc2cc3nc(-c4cccc5[nH]ncc45)nc(N4CCOCC4)c3s2)CC1 [Pictilisib] (partner 1 µM)
Summary of the method: (§1)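 Medians of duplicate plates are given as relative viability. That measure is the nuclei count in treated wells divided by the count in vehicle wells. Counts were taken on 4× images of lung cancer cell lines in 1536-well plates, 5 days after pin-tool dosing the day after seeding with one drug alone or a fixed anchor-drug dose plus five library-drug doses (not always all listed) in √10 steps.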

MK-8033 + Phenformin = compound: Cn1cc(-c2cnc3ccc4ccc(CS(=O)(=O)NCc5ccccn5)cc4c(=O)c3c2)cn1 [MK-8033] + N=C(N)NC(=N)NCCc1ccccc1 [Phenformin] (partner 250 µM)
Summary of the method: as §1

RU-SKI 43 + Trametinib = compound: CC[C@@H](C)CNCC(=O)N1CCC2=C([C@@H]1COC3=CC=CC(=C3)C)C=CS2 [RU-SKI 43] + CC(=O)Nc1cccc(-n2c(=O)n(C3CC3)c(=O)c3c(Nc4ccc(I)cc4F)n(C)c(=O)c(C)c32)c1 [Trametinib] (partner 0.02 µM)
Summary of the method: as §1

Irinotecan + Alpelisib = compound: CCc1c2c(nc3ccc(OC(=O)N4CCC(N5CCCCC5)CC4)cc13)-c1cc3c(c(=O)n1C2)COC(=O)[C@]3(O)CC [Irinotecan] + Cc1nc(NC(=O)N2CCC[C@H]2C(N)=O)sc1-c1ccnc(C(C)(C)C(F)(F)F)c1 [Alpelisib] (partner 2 µM)
Summary of the method: as §1

Row | Cell Line | relative viability (RU-SKI 43 + Pictilisib; first compound 0.1 µM) | relative viability (RU-SKI 43 + Pictilisib; first compound 0.3162 µM) | relative viability (RU-SKI 43 + Pictilisib; first compound 1 µM) | relative viability (RU-SKI 43 + Pictilisib; first compound 10 µM) | relative viability (MK-8033 + Phenformin; first compound 0.02 µM) | relative viability (MK-8033 + Phenformin; first compound 0.2 µM) | relative viability (MK-8033 + Phenformin; first compound 0.6325 µM) | relative viability (MK-8033 + Phenformin; first compound 2 µM) | relative viability (RU-SKI 43 + Trametinib; first compound 0.1 µM) | relative viability (RU-SKI 43 + Trametinib; first compound 0.3162 µM) | relative viability (RU-SKI 43 + Trametinib; first compound 1 µM) | relative viability (RU-SKI 43 + Trametinib; first compound 3.162 µM) | relative viability (RU-SKI 43 + Trametinib; first compound 10 µM) | relative viability (Irinotecan + Alpelisib; first compound 0.6325 µM) | relative viability (Irinotecan + Alpelisib; first compound 2 µM) | relative viability (Irinotecan + Alpelisib; first compound 6.325 µM) | relative viability (Irinotecan + Alpelisib; first compound 20 µM) | relative viability (RU-SKI 43 + Pictilisib; first compound 3.162 µM) | relative viability (MK-8033 + Phenformin; first compound 0.06325 µM)
1 | LK-2 | 0.596 | 0.809 | 0.686 | 0.532 | 0.708 | 0.326 | 0.437 | 0.305 | 0.766 | 1.01 | 0.915 | 0.828 | 0.736 | 1.17 | 1.4 | 0.487 | 0.259 |  | 
2 | LOU-NH91 | 0.504 | 0.483 | 0.547 | 0.543 | 0.716 | 0.717 | 0.715 | 0.768 | 0.774 | 0.749 | 0.802 | 0.825 | 0.808 | 0.663 | 0.596 | 0.422 | 0.301 | 0.485 | 0.473
3 | LU99A | 0.312 | 0.304 | 0.321 | 0.292 | 0.859 | 0.773 | 0.845 | 0.751 | 0.561 | 0.65 | 0.595 | 0.553 | 0.489 | 0.219 | 0.23 | 0.225 | 0.219 | 0.333 | 0.747
4 | LXF-289 | 0.828 | 0.809 | 0.832 | 0.744 | 0.559 | 0.499 | 0.547 | 0.538 | 0.682 | 0.743 | 0.728 | 0.66 | 0.66 | 0.994 | 0.504 | 0.273 | 0.214 | 0.794 | 0.504
5 | NCI-H23 | 0.441 | 0.497 | 0.536 | 0.468 | 0.795 | 0.715 | 0.857 | 0.814 | 0.395 | 0.392 | 0.38 | 0.443 | 0.348 | 0.519 | 0.421 | 0.246 | 0.243 | 0.492 | 0.81
6 | NCI-H322M | 0.586 | 0.469 | 0.559 | 0.482 | 0.779 | 0.698 | 0.936 | 0.749 | 0.492 | 0.553 | 0.534 | 0.565 | 0.553 | 0.576 | 0.37 | 0.282 | 0.395 | 0.51 | 0.662
7 | NCI-H358 | 0.291 | 0.315 | 0.332 | 0.286 | 0.369 | 0.296 | 0.307 | 0.318 | 0.125 | 0.138 | 0.181 | 0.139 | 0.124 | 0.628 | 0.561 | 0.311 | 0.248 | 0.336 | 0.296
8 | NCI-H441 | 0.466 | 0.491 | 0.47 | 0.468 | 0.997 | 0.645 | 0.955 | 0.732 | 0.483 | 0.426 | 0.552 | 0.45 | 0.265 | 0.68 | 0.513 | 0.336 | 0.5 | 0.609 | 0.739
9 | NCI-H460 | 0.335 | 0.35 | 0.45 | 0.238 | 0.543 | 0.506 | 0.542 | 0.491 | 0.224 | 0.2 | 0.141 | 0.197 | 0.0732 | 0.461 | 0.339 | 0.0811 | 0.0821 | 0.263 | 0.486
10 | NCI-H520 | 0.279 | 0.326 | 0.385 | 0.306 | 0.766 | 0.503 | 0.639 | 0.542 | 0.79 | 1.02 | 0.654 | 0.794 | 0.45 | 0.751 | 0.733 | 0.282 | 0.203 | 0.456 | 0.424
11 | NCI-H596 | 0.379 | 0.43 | 0.42 | 0.57 | 0.854 | 0.741 | 0.657 | 0.627 | 0.775 | 0.883 | 0.858 | 0.793 | 0.717 | 0.639 | 0.548 | 0.483 | 0.557 | 0.414 | 0.662
12 | NCI-H647 | 0.392 |  | 0.547 | 0.412 | 0.508 | 0.509 | 0.546 | 0.549 | 0.445 | 0.57 | 0.472 | 0.521 | 0.439 | 0.816 | 0.435 | 0.197 | 0.202 | 0.428 | 0.448
13 | NCI-H650 | 0.947 | 0.793 | 0.829 | 0.926 | 0.441 | 0.464 | 0.437 | 0.47 | 0.905 | 0.931 |  | 1.05 | 0.96 | 0.889 | 0.432 | 0.229 | 0.323 |  | 0.445
14 | NCI-H661 | 0.432 | 0.409 | 0.484 | 0.414 | 0.26 | 0.27 | 0.267 | 0.292 | 0.539 | 0.676 | 0.564 | 0.564 | 0.477 | 0.798 | 0.538 | 0.277 | 0.269 | 0.355 | 0.254
15 | NCI-H727 | 0.31 | 0.305 | 0.438 | 0.377 | 0.7 | 0.435 | 0.627 | 0.465 |  | 0.388 | 0.449 | 0.372 | 0.374 | 0.324 | 0.433 | 0.354 | 0.422 | 0.497 | 
16 | NCI-H838 | 0.471 | 0.434 | 0.544 | 0.445 | 0.622 | 0.524 | 0.555 | 0.543 | 0.491 | 0.645 | 0.471 | 0.529 | 0.505 | 1.28 | 0.962 | 0.354 | 0.295 | 0.444 | 0.572
17 | NCI-H1355 | 0.432 | 0.331 | 0.508 | 0.442 | 0.444 | 0.424 | 0.435 | 0.432 | 0.451 | 0.437 | 0.376 | 0.477 | 0.464 | 0.711 | 0.4 | 0.222 | 0.237 | 0.465 | 0.401
18 | NCI-H1395 | 0.607 | 0.574 | 0.668 | 0.542 | 0.448 | 0.43 | 0.45 | 0.416 | 1.06 | 1.2 | 1.23 | 0.98 | 0.981 |  | 0.707 | 0.52 | 0.246 | 0.58 | 0.412
19 | NCI-H1437 | 0.438 | 0.529 | 0.432 | 0.446 | 0.293 | 0.291 | 0.324 | 0.267 | 0.492 | 0.555 | 0.59 | 0.527 | 0.363 | 0.75 | 0.67 | 0.262 | 0.147 | 0.465 | 0.291
20 | NCI-H1651 | 0.606 | 0.783 | 0.76 | 0.728 | 0.429 | 0.346 | 0.312 | 0.304 | 0.793 | 0.876 | 0.966 | 0.893 | 0.835 | 0.862 | 0.705 | 0.246 | 0.205 | 0.621 | 0.29
21 | NCI-H1666 | 0.407 | 0.481 | 0.377 | 0.2 | 0.588 | 0.548 | 0.612 | 0.527 | 0.831 | 0.804 | 0.803 | 0.845 | 0.68 | 0.697 | 0.552 | 0.486 | 0.337 | 0.331 | 0.598
22 | NCI-H1734 | 0.467 | 0.585 | 0.459 | 0.431 | 0.435 | 0.366 | 0.361 | 0.37 | 0.656 | 0.758 | 0.724 | 0.695 | 0.622 | 0.625 | 0.331 | 0.143 | 0.233 | 0.454 | 0.338
23 | NCI-H1755 | 0.384 | 0.524 | 0.532 | 0.367 | 0.603 | 0.605 | 0.682 | 0.653 | 0.751 | 0.866 | 0.839 | 0.833 | 0.768 | 0.822 | 0.434 | 0.292 | 0.363 | 0.48 | 0.572
24 | NCI-H1792 | 0.284 | 0.351 | 0.277 | 0.304 | 0.346 |  | 0.282 | 0.225 | 0.36 | 0.53 | 0.486 | 0.327 | 0.362 | 0.711 | 0.673 | 0.329 | 0.11 | 0.281 | 0.267
25 | NCI-H1793 | 0.396 | 0.411 | 0.479 | 0.31 | 0.383 | 0.316 | 0.394 | 0.293 | 0.439 | 0.386 | 0.435 | 0.473 | 0.479 |  | 0.668 | 0.383 | 0.259 | 0.318 | 0.284
26 | NCI-H1915 | 1.02 | 0.954 | 1.03 | 0.927 | 0.356 | 0.373 | 0.391 | 0.376 | 0.296 | 0.34 | 0.311 | 0.288 | 0.265 | 0.3 | 0.217 | 0.164 | 0.155 | 0.961 | 0.315
27 | NCI-H1944 | 0.336 | 0.317 | 0.372 | 0.351 | 0.186 | 0.19 | 0.198 | 0.181 | 0.349 | 0.406 | 0.417 | 0.387 | 0.388 | 0.58 | 0.271 | 0.168 | 0.167 | 0.353 | 0.159
28 | NCI-H1975 | 0.293 | 0.289 | 0.294 | 0.254 | 0.409 | 0.405 |  | 0.364 | 0.311 | 0.351 | 0.355 | 0.296 | 0.257 | 0.654 | 0.68 | 0.324 | 0.195 | 0.273 | 0.417
